Source: ChEMBL document CHEMBL1287680, “C-11 diamino cryptolepine derivatives NSC748392, NSC748393, and NSC748394: anticancer profile and G-quadruplex stabilization” (Bioorg Med Chem Lett, 2010)

Legend:
Vero = experiment: cells; conditions: Chlorocebus sabaeus, 48 h
Description: Cytotoxicity against african green monkey Vero cells after 48 hrs by MTT assay

Description for physchem: Dissociation constant, pKa of the compound by UV-visible spectroscopy

SMILES	pKa (physchem)	IC50 (Vero) [nM]
CCN(CC)c1c2ccccc2[n+](C)c2c1[nH]c1ccccc12		3000
CCN(CC)CCCC(C)Nc1c2ccccc2[n+](C)c2c1[nH]c1ccccc12 (configuration not stated)	11.4	13000
CCN(CC)CCCNc1c2ccccc2[n+](C)c2c1[nH]c1ccccc12	11.6	2500
C[n+]1c2cc(Cl)ccc2c(NC2CCNCC2)c2[nH]c3ccccc3c21	11.1	4400
C[n+]1c2ccccc2c(Nc2ccccc2)c2[nH]c3ccccc3c21	10.6	600
CCN(CC)Cc1ccc(Nc2c3ccccc3[n+](C)c3c2[nH]c2ccccc23)cc1O	10.8	800
C[n+]1c2ccccc2c(Nc2cccnc2)c2[nH]c3ccccc3c21	10.3	2600
CCN(CC)CCCNc1c2ccc(Cl)cc2[n+](C)c2c1[nH]c1ccccc12	11.2	1300
C[n+]1c2cc(Cl)ccc2c(NC2CCNCC2)c2[nH]c3cc(Cl)ccc3c21	10.3	800
CCN(CC)CCNc1c2ccccc2[n+](C)c2c1[nH]c1ccccc12	11.6	2800
CN(C)CCCNc1c2ccccc2[n+](C)c2c1[nH]c1ccccc12	11.9	2200
CN(C)CC(C)(C)CNc1c2ccccc2[n+](C)c2c1[nH]c1ccccc12	11.7	3000

Second part, led by results:

pKa (physchem)	SMILES	IC50 (Vero) [nM]
11.7	C[n+]1c2ccccc2c(NCCCN2CCCCC2)c2[nH]c3ccccc3c21	2000
11.6	CC(C)CN1CCC(Nc2c3ccccc3[n+](C)c3c2[nH]c2ccccc23)CC1	5000
11.5	CC(C)NCCCNc1c2ccccc2[n+](C)c2c1[nH]c1ccccc12	3000
11.6	CN(C)CCNc1c2ccccc2[n+](C)c2c1[nH]c1ccccc12	5500
11.6	CC(CN(C)C)Nc1c2ccccc2[n+](C)c2c1[nH]c1ccccc12 (configuration not stated)	3000
11.5	C[n+]1c2ccccc2c(NC2CCN(Cc3ccccc3)CC2)c2[nH]c3ccccc3c21	2200
11.6	C[n+]1c2ccccc2c(NC2CCN(Cc3ccccc3O)CC2)c2[nH]c3ccccc3c21	2600
